Measured values: US20240085425A1, “BIOMARKER AND APPLICATION THEREOF” (ADLAI NORTYE BIOPHARMA CO., LTD., priority 2022, published 2024)

Columns and labels:
Type in all cases: cell-based
[1] = tested on: non-phosphorylated β-catenin; assay: Western blot of non-phosphorylated β-catenin content in Colo205 cells; conditions: for Effect on content of non-phosphorylated β-catenin (active β-catenin), in words: FIG. 1; for IC50: overnight, Western blot, read-out: Non-phosphorylated β-catenin content inhibition IC50
Source text: (§1) The Wnt signaling pathway is a key pathway for abnormal tumor growth. In colon cancer, liver cancer, pancreatic cancer and other cancers, a large number of patients have abnormal activation of the Wnt signaling pathway. The Wnt signaling pathway depends on the fine balance of β-catenin protein level. When Wnt signaling is not activated, β-catenin is phosphorylated by CK1 and APC/Axin/GSK-3β complexes, and the β-catenin protein is kept at a low level through ubiquitin-dependent proteasome degradation. When the Wnt signaling pathway is activated, β-catenin maintains a stable state of non-phosphorylation, and non-phosphorylated β-catenin can be transported into the nucleus through Rac1 and other factors, and plays a transcriptional regulatory role by binding to LEF/TCF transcription factors in the nucleus, activates downstream target genes such as C-myc and Cyclin D1, and promotes cell proliferation. Therefore, abnormal activation of the Wnt signaling pathway in tumor cells will lead to abnormal proliferation of tumors. In order to explore the inhibitory mechanism of the compound on the proliferation of tumor cell lines, the compound AN10250399, AN10250421 or AN10250484 was used to treat sensitive cells Colo205, DU4475 and HepG2, and Western blot was used to detect the content of non-phosphorylated β-catenin in the Wnt pathway to clarify the effect of the compound on content of the non-phosphorylated β-catenin.
Add 500 μL of the compound with the highest concentration shown in FIG. 1 to each well of the 6-well cell culture plate, and make a 10-fold gradient dilution of the compound concentration. Then 500 μL of 10^6 Colo205, DU4475 and HepG2 or 500 μL of medium were inoculated into each well, and corresponding solvent treatment was performed simultaneously as negative control wells. The cells were placed in a 5% CO2 cell incubator, cultured overnight at 37° C. The culture medium was removed, washed once with PBS, 200 μL of RIPA buffer containing protease inhibitors was added to each well, and the protein lysate was collected after lysing on ice for 20 min. Add an appropriate amount of concentrated SDS-PAGE protein loading buffer to the collected protein lysate samples, and heat at 100° C. or in a boiling water bath for 3-5 minutes to fully denature the protein. Load the protein sample directly to the SDS-PAGE gel for electrophoresis separation, transfer the protein on the SDS-PAGE gel to the PVDF membrane; after the transfer was completed, the protein was blocked by Western blocking solution, then Rabbit anti-β-catenin non-phospho S37/After T41 (ab278503) was added and the protein was incubated at room temperature for one hour and washed, the content of non-phosphorylated β-catenin was detected by incubation with Goat Anti-Rabbit IgG H&L (HRP) (ab6721). As a control, glyceraldehyde-3-phosphate dehydrogenase (GAPDH) was used as an internal standard protein

[2] = tested on: non-phosphorylated β-catenin; assay: Western blot of non-phosphorylated β-catenin content in DU4475 cells; conditions: overnight, read-out: Non-phosphorylated β-catenin content inhibition IC50
Source text: as §1, with “In order to explore the inhibitory mechanism of the compound on the proliferation of tumor cell lines, the compound AN10250399, AN10250421 or AN10250484 was used to treat sensitive cells Colo205, DU4475 and HepG2, and Western blot was used to detect the content of non-phosphorylated β-catenin in the Wnt pathway to clarify the effect of the compound on content of the non-phosphorylated β-catenin.” left out
Add 500 μL of the compound with the highest concentration shown in FIG. 1 to each well of the 6-well cell culture plate, and make a 10-fold gradient dilution of the compound concentration. […] Load the protein sample directly to the SDS-PAGE gel for electrophoresis separation, transfer the protein on the SDS-PAGE gel to the PVDF membrane; after the transfer was completed, the protein was blocked by Western blocking solution, then Rabbit anti-β-catenin non-phospho S37/After T41 (ab278503) was added and the protein was incubated at room temperature for one hour and washed, the content of non-phosphorylated β-catenin was detected by incubation with Goat Anti-Rabbit IgG H&L (HRP) (ab6721). […]

HCT15 = assay: Tumor cell proliferation inhibition (Promega cell viability, 72 h); conditions: Homo sapiens, HCT-15, HCT15 cells, read-out: Anti-proliferation IC50
Description: (§2) The cell lines used in the experiment are various tumor cells, including DU4475, Colo205, HepG2, PLC/PRF/5, BT-20, LS174T, NCI-H929, HCT116, SW620, SK-CO-1, SW480, DLD1, HT-29, SW900, SW1417, HuH7, H2009, PANC-1, SW48, Duadi, H358, HCT15, 22Rv1, Hela, RKO, Raji, Jurkat, NCI-H716, MDA-MB-231, NCI-H157 and THP1, and the inhibitory effect of the compound of the present disclosure on the proliferation of these tumor cells is determined, in order to screen out sensitive cell types of the compound of the present disclosure.
(§3) DU4475, Colo205, HepG2, PLC/PRF/5, BT-20, LS174T, NCI-H929, HCT116, SW620, SK-CO-1, SW480, DLD1, HT-29, SW900, SW1417, HuH7, H2009, PANC-1, SW48, Duadi, H358, HCT15, 22Rv1, Hela, RKO, Raji, Jurkat, NCI-H716, MDA-MB-231, NCI-H157 and THP1 cell lines cultured in each medium were treated during the logarithmic growth phase, and the cells were collected and prepared into a uniform cell suspension of known concentration, and then added to the 96-well cell culture plate to make each well contain 1000 cells. Put it into a 5% CO2 incubator and incubate at 37° C. for 20-24 h. The next day, the fully dissolved 3-fold gradient diluted compound was added to each cell culture well, so that the final maximum concentration in the cell culture well was 20 μM, and the culture was continued for 72 hours. In this test, Promega's cell viability detection test is used for detection. The more the cells proliferate, the stronger the final signal intensity will be. The detection instrument is SpectraMax, full wavelength mode. The wells with only DMSO added were used as positive control wells, and the wells without cells inoculated were used as negative control wells. The IC50 value of each compound for different cell proliferation inhibition was calculated to evaluate the inhibitory effect of the compound on different tumor cells.

LS174T = assay: as above; conditions: Homo sapiens, LS174T cells, read-out: Anti-proliferation IC50
Description: as §2, §3

Colo205 = assay: as above; conditions: Homo sapiens, COLO 205, Colo205 cells, read-out: Anti-proliferation IC50
Description: as §2, §3

NCI-H157 = assay: as above; conditions: Homo sapiens, NCI-H157 cells, read-out: Anti-proliferation IC50
Description: as §2, §3

Hela = assay: as above; conditions: Homo sapiens, Hela cells, read-out: Anti-proliferation IC50
Description: as §2, §3

NCI-H716 = assay: as above; conditions: Homo sapiens, NCI-H716 cells, read-out: Anti-proliferation IC50
Description: as §2, §3

22Rv1 = assay: as above; conditions: Homo sapiens, 22Rv1 cells, read-out: Anti-proliferation IC50
Description: as §2, §3

PLC/PRF/5 = assay: as above; conditions: Homo sapiens, PLC/PRF/5 cells, read-out: Anti-proliferation IC50
Description: as §2, §3

SW480 = assay: as above; conditions: Homo sapiens, SW480 cells, read-out: Anti-proliferation IC50
Description: as §2, §3

SW48 = assay: as above; conditions: Homo sapiens, SW48 cells, read-out: Anti-proliferation IC50
Description: as §2, §3

SW900 = assay: as above; conditions: Homo sapiens, SW900 cells, read-out: Anti-proliferation IC50
Description: as §2, §3

IC50 [1] [nM] | IC50 [2] [nM] | IC50 (HCT15) [nM] | IC50 (LS174T) [nM] | IC50 (Colo205) [nM] | IC50 (NCI-H157) [nM] | IC50 (Hela) [nM] | IC50 (NCI-H716) [nM] | IC50 (22Rv1) [nM] | IC50 (PLC/PRF/5) [nM] | IC50 (SW480) [nM] | IC50 (SW48) [nM] | IC50 (SW900) [nM] | SMILES | Effect on content of non-phosphorylated β-catenin (active β-catenin), in words [1]
22 | 157 | > 10000 | 102 | 43 | > 10000 | > 10000 | > 10000 | > 10000 | 62.6 | 300 | > 10000 | 57.2 | [2H]C([2H])([2H])N1c2nc(NCc3ccc(Oc4cnc(C(F)(F)F)nc4)nc3)nc3c2N(CCC3)C(=O)[C@]1(C)CO [AN10250399] | decrease the content of non-phosphorylated β-catenin
10 | 29 | > 10000 | 26.3 | 9 | > 10000 | > 10000 | > 10000 | > 10000 | 18 | 300 | > 10000 | 26.6 | Cc1nc(C(F)(F)F)ncc1Oc1ccc(CNc2nc(C)c3c(n2)N(C)[C@@H](C)C(=O)N3)cn1 [AN10250484] | decrease the content of non-phosphorylated β-catenin
